Counter-ions that a name gives are not always drawn. Like-named read-outs stand apart in the source and are kept apart here.

For data set [1] the following is noted: about pH 5-8, preferably about pH 6-7.
Data set [2] can be described thus: Kinetic measurements of hydrolysis (release of p-nitrophenoxide), effect of Mg2+. It counts as physicochemical. The conditions noted are these: for enhancement of hydrolysis rate by MgCl2 (factor): 0.2 M MgCl2, pH 8.5, 25° C. An excerpt:
Kinetic Measurements of the Hydrolysis of E-19.

Data set [3] can be described thus: Kinetics of hydrolysis of PNHDA, dependence on pH and Ni2+. Also noted: K / K': unit not given here. It counts as physicochemical. On the procedure: The rates of hydrolysis of p-nitrophenyl(hydroxyimino)-(dihydroxyphosphinyl)acetate (16) were determined with Shimadzu UV-260 spectrophotometer by monitoring appearance of thep-nitrophenol at 400 nm (pH 6-11) and 317 nm (pH 4-5) and disappearance of reactant (16) at 217 nm (pH 4-5). The product spectra were quantitatively identified with those of equivalent concentration of p-nitrophenol under the same conditions. Reaction mixture pH values were measured. at 25 and 50° C. with a Beckman Model 71 pH meter. For non-metal ion-assisted reactions, a few buffer solutions were prepared with EDTA (2×10^-5) as a precaution against trace metal ions in the buffer and salts, but the same results were obtained as with the non-EDTA-containing buffers. Buffers employed were acetate (pH 4.2-5.3), N-ethyl morpholine (pH 6.7-7.8), and borate (pH 8-11). The buffer concentrations were 0.02-0.01 M (no significant catalytic effect). The ionic strength was 0.5-1.0 M, maintained with NaCl.
To initiate a kinetic run, 50-100 μl of 19 stock solution (0.002 M in H2 O) was injected into 2-3 ml of reactant solution maintained at the desired temperature. The reactions followed pseudo-first-order kinetics for at least 3 half-lives. Kinetic parameters were calculated with a linear least-squares computer program.

A short description of data set [4]: Stability / hydrolysis-fragmentation of E-16 (anilinium salt E-19) in water. It counts as physicochemical. The note with it: for half-life: read-out: t1/2 of decomposition in H2O (converted). On the procedure:
Stability of E-19. These experiments were carried out in 5 mm glass NMR tubes at 22° C., concentration of E-4 0.1% (w/v).

Data set [5] can be described thus: Stability of DCHA+ salts 3 heated in different solvents (31P NMR). The data set is classed as physicochemical. The conditions noted are these: conditions similar to refluxing AN. On the procedure: Stability of DCHA^+ Salts 3 Heated in Different Solvents. 40 mg 3 (E or Z) was heated in 5 ml of alcohol mixture, H2 O or acetonitrile. Reaction progress was monitored by ^31 P NMR spectroscopy.

`O=C(O)/C(=N\O)P(=O)(O)O` [E-7, α-(hydroxyimino)phosphonoacetic acid]: the phosphorylating activity entry in data set [1] is on record as “active phosphorylating agent”.

Turning to `COP(=O)(O)/C(=N/O)C(=O)O` [E-8, (E)-(hydroxyimino)(hydroxymethoxyphosphinyl)acetic acid], the stability in water entry (about pH 7, about 24 hours, room temperature) is “stable”. Further, under “pH 1.5”, the methyl phosphate formed came to 15%, the methyl phosphorocyanidate formed turned out to be 85% and the “rate of E-8→Z-8→15 relative to dissociative fragmentation” value is “about 6 ×”. For the setting “pH 1.5, over 2.5 hours”, the decomposition result is “quantitatively decomposed”. Also, under “pH 7, 25° C.”, the reactivity entry is reported as “unreactive”.

In the case of `O=C(Oc1ccc([N+](=O)[O-])cc1)/C(=N\O)P(=O)(O)O` [E-16, p-nitrophenyl (E)-(dihydroxyphosphinyl)(hydroxyimino)acetate], the “rate of release of p-nitrophenoxide vs. p-nitrophenyl acetate (times faster)” value in data set [2] (0.2 M MgCl2) came to 40 ×; in data set [2] (pH 8.5, 25° C., no Mg2+) it was 20 ×. Besides, in data set [2], the “enhancement of hydrolysis rate by MgCl2 (factor)” value is 2.5 (±0.1). In addition, the “acceleration of p-nitrophenyl ester hydrolysis by (E)-oxime group” value in data set [2] (qualitative) is reported as “several orders of magnitude”. The “enhancement of rate by Ni2+ (factor)” value in data set [3] (0.01M Ni2+, pH 4.2) is reported as 3. Besides, the “enhancement of Kobsd by Ni2+ (factor)” value in data set [3] (0.01M Ni2+, pH 6.5) came out at 28; in data set [3] (0.01M Ni2+, pH 7.4), 20. Also, the “Ni2+ concentration with saturation effect on Kobsd” value in data set [3] (constant pH) is 7 mM. Moreover, the K in data set [3] (pH 4.2, Ni = 0.01M, 50° C.) is recorded as 0.015; in data set [3] (pH 4.2, no metal ion, 50° C.) it was 0.0049; in data set [3] (pH 5.2, no metal ion, 50° C.), 0.0156; in data set [3] (pH 6.5, Ni = 0.01M, 50° C.), 0.31; in data set [3] (pH 6.5, no metal ion, 50° C.), 0.011; in data set [3] (pH 7.4, Ni = 0.01M, 50° C.), 1.127. Besides, the K is 0.0563 in data set [3] (pH 7.4, no metal ion, 50° C.); 0.052 in data set [3] (pH 8.5, no metal ion, 25° C.); 0.101 in data set [3] (pH 9, no metal ion, 25° C.); 0.33 in data set [3] (pH 9.5, no metal ion, 25° C.); 0.629 in data set [3] (pH 10, no metal ion, 25° C.); 1.2 in data set [3] (pH 11, no metal ion, 25° C.). Besides, the “log (k)” value is -1.824 in data set [3] (pH 4.2, Ni = 0.01M, 50° C.); -2.311 in data set [3] (pH 4.2, no metal ion, 50° C.); -1.807 in data set [3] (pH 5.2, no metal ion, 50° C.); -0.509 in data set [3] (pH 6.5, Ni = 0.01M, 50° C.); -1.959 in data set [3] (pH 6.5, no metal ion, 50° C.); 0.052 in data set [3] (pH 7.4, Ni = 0.01M, 50° C.). In addition, the “log (k)” value was -1.249 in data set [3] (pH 7.4, no metal ion, 50° C.); -1.288 in data set [3] (pH 8.5, no metal ion, 25° C.); -0.997 in data set [3] (pH 9, no metal ion, 25° C.); -0.481 in data set [3] (pH 9.5, no metal ion, 25° C.); -0.201 in data set [3] (pH 10, no metal ion, 25° C.); 0.079 in data set [3] (pH 11, no metal ion, 25° C.). Moreover, the “K'” value is reported as 0.0165 in data set [3] (pH 5.2, no metal ion, 50° C.); 0.009 in data set [3] (pH 6.5, no metal ion, 50° C.); 1.1 in data set [3] (pH 7.4, Ni = 0.01M, 50° C.); 0.0605 in data set [3] (pH 7.4, no metal ion, 50° C.); 0.05635 in data set [3] (pH 8.5, no metal ion, 25° C.); 0.101 in data set [3] (pH 9, no metal ion, 25° C.). In addition, the “K'” value is on record as 0.33 in data set [3] (pH 9.5, no metal ion, 25° C.); 0.603 in data set [3] (pH 10, no metal ion, 25° C.); 1.249 in data set [3] (pH 11, no metal ion, 25° C.). For the same compound, the “log (K')” value in data set [3] (pH 5.2, no metal ion, 50° C.) was -1.78; in data set [3] (pH 6.5, no metal ion, 50° C.) it was -2.05; in data set [3] (pH 7.4, Ni = 0.01M, 50° C.) it was 0.041; in data set [3] (pH 7.4, no metal ion, 50° C.), -1.22; in data set [3] (pH 8.5, no metal ion, 25° C.), -1.249; in data set [3] (pH 9, no metal ion, 25° C.), -0.996. Also, the “log (K')” value in data set [3] (pH 9.5, no metal ion, 25° C.) is given as -0.481; in data set [3] (pH 10, no metal ion, 25° C.) it was -0.22; in data set [3] (pH 11, no metal ion, 25° C.), 0.0966. The “hydroxide dependence of hydrolysis” value in data set [3] (pH<7) is reported as “independent of hydroxide ion concentrations”; in data set [3] (pH>8), “hydroxide ion catalyzed”. In data set [3] (pH>8), the “slope of log Kobsd vs pH” value is listed as 0.8. Moreover, the phosphate among products in data set [4] (pH 6.5) is recorded as 92%; in data set [4] (pH 8.5), 80%; in data set [4] (pH about 3, 52 hr), 100%. Besides, the phosphorocyanidate among products in data set [4] (pH 6.5) was 8%; in data set [4] (pH 8.5), 20%. Moreover, in data set [4] (pH 8.5, 1:1 water:methanol), the “phosphoric acid and methyl phosphate, total” value came to 34%. Besides, in data set [4] (pH 8.5, presence of Mg2+), the formation of phosphorocyanidate entry is reported as “not observed”. For the same compound, the “hydrolysis rate in words” value in data set [4] (pH 8.5, presence of Mg2+) is “faster”. In addition, in data set [4] (water, pH 3, pH about 3, 52 hr, read-out: decomposition in H2O), the degraded at 52 h was less than 4%. For the same compound, the half-life is roughly 30 h in data set [4] (water, pH 6.5) and roughly 1 h in data set [4] (water, pH 8.5).

With `O=C(Oc1ccc([N+](=O)[O-])cc1)/C(=N\O)P(=O)(O)O` [E-19, Anilinium Salt of p-Nitrophenyl (E)-(Hydroxyimino)(dihydroxyphophinyl)acetate], the “reaction order of hydrolysis” value in data set [2] (pH 8.5, 25° C.) is listed as “pseudo-first order”. In data set [4] (anilinium salt, storage), the storage stability entry is “stable to storage”.

Regarding `COP(=O)(O)C(=NO)c1ccccc1` [methyl α-(hydroxyimino)benzylphosphonate anion, reference compound], the thermal stability entry in data set [5] is “thermally stable”.

On to `CC(=O)Oc1ccc([N+](=O)[O-])cc1` [p-nitrophenyl acetate, reference compound], for which the “enhancement of hydrolysis rate by MgCl2 (factor)” value in data set [2] was “not altered significantly”. In addition, the “reaction order of hydrolysis” value in data set [2] (pH 8.5, 25° C.) is “pseudo-first order”.
